Measured values reported in PubChem BioAssay (NCI).
Where “and” joins values, the source holds several entries; their conditions need not be identical. Equal values may be shown once.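 Assay format: 96-well plates, 48-hour exposure. GI50 = concentration required for 50% inhibition of growth. TGI: total growth inhibition.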

Columns and labels:
Assay in all cases: inhibition of tumour cell growth, NCI panel, 48 h
[1] = test system: SR leukemia
[2] = test system: RXF 393 renal
[3] = test system: K-562 leukemia
[4] = test system: HT29 colon
[5] = test system: MCF7 breast
[6] = test system: UACC-257 melanoma
[7] = test system: OVCAR-5 ovarian
[8] = test system: OVCAR-4 ovarian
[9] = test system: SF-268 CNS
[10] = test system: MDA-MB-435

Row | SMILES | TGI [1] [µM] | TGI [2] | TGI [3] [µM] | TGI [4] [µM] | TGI [5] [µM] | TGI [6] | TGI [7] [µM] | TGI [8] [µM] | TGI [9] [µM] | TGI [10] [µM] | GI50 [1] [µM] | GI50 [2] | GI50 [3] [µM] | GI50 [4] | GI50 [5] [µM] | GI50 [6] | GI50 [7] | GI50 [8] | GI50 [9] | GI50 [10]
1 | COc1cc(C2SCCCCCCCCCCSC(c3ccc(O)c(OC)c3)SCCCCCCCCCCS2)ccc1O (stereo not drawn) | > 100 | > 100 µM | > 100 | > 100 | > 100 | > 100 µM | > 100 | > 100 | > 100 | > 100 | – | – | – | – | – | – | – | – | – | –
2 | COc1ccc(/C=C/C(=O)/C=C/c2cc3ccccc3[nH]c2=O)cc1 | 8.65 | 11.9 µM | > 100 | 5.94 | 11.1 | 25.3 µM | 19.9 | > 100 | 11.4 | 5.07 | 2.88 | 3.31 µM | 3.34 | 2.47 µM | 2.11 | 10.8 µM | 5.13 µM | 9.73 µM | 3.11 µM | 2.22 µM
3 | CC(=O)Oc1ccc(C23c4ccccc4C2(OC(C)=O)c2cc(OC(C)=O)ccc23)cc1 (stereo not drawn) | 24.2 | 12.3 µM | > 100 | > 100 | > 100 | 60.8 µM | 18 | > 100 | 22 | 25.6 | 3.14 | 3.38 µM | 4.04 | 39.7 µM | 16.6 | 22.9 µM | 5.54 µM | 30 µM | 5.54 µM | 4.9 µM
4 | O=S(=O)(NC1=NCCN1C(=S)SN1CCn2c1nsc2=S)c1cccc2ccccc12 | 45.6 | 67.2 µM | 44.6 | > 100 | 58 | 97.2 µM | > 100 | > 100 | > 100 | 39.9 | 10.2 | 10.5 µM | 16.1 | 31.4 µM | 7.27 | 24.3 µM | 61 µM | 29.2 µM | 23.3 µM | 17.4 µM
5 | COc1ccccc1C#Cc1ccccc1C#CCCCCO | 64.4 | 29.8 µM | > 100 | 29 | > 100 | 38.8 µM | 34.1 | 63.1 | 45.2 | 41.8 | 1.01 | 13.8 µM | 15.5 | 8.58 µM | 31.7 | 20.6 µM | 16.8 µM | 23.2 µM | 18 µM | 20.2 µM
6 | O=[N+]([O-])c1cc(Cl)c2[nH]c3c(Cl)cc([N+](=O)[O-])cc3c2c1 | > 100 | 18.8 µM | > 100 | > 100 | > 100 | 0.996 µM | > 29.5 | > 100 | > 100 | – | 0.32 | 0.461 µM | 0.243 | 0.431 µM | 0.284 | 0.159 µM | 1.33 µM | 0.263 µM | 0.403 µM | 0.31 µM
7 | COc1cc2ncn(-c3cc(OCc4ccccc4C(F)(F)F)c(C(=O)N(C)C)s3)c2cc1OC | > 25 | > 18.7 µM | > 25 | > 25 | > 25 | > 25 µM | > 25 | > 25 | > 25 | > 25 | > 25 | 8.53 µM | > 21.3 | > 25 µM | > 25 | > 25 µM | > 25 µM | 18.1 µM | > 25 µM | > 25 µM
8 | CCc1ccc(NC(=O)NC(=O)c2ccccc2[N+](=O)[O-])cc1Oc1ncc(Cl)cn1 | > 100 | 73.4 µM | > 100 | 0.854 | > 100 | > 100 µM | > 100 | > 100 | > 16.9 | 0.0332 | – | – | – | – | – | – | – | – | – | –
9 | CCOC(=O)C(Cc1c[nH]c2c(N(CCO)CCO)cccc12)(NC(C)=O)C(=O)OCC | 890 | > 1000 µM | 516 | 417 | 305 | > 1000 µM | > 1000 | > 1000 | > 1000 | 311 | 144 | > 1000 µM | 194 | 140 µM | 141 | > 1000 µM | > 1000 µM | 196 µM | > 1000 µM | 167 µM
10 | COc1cc2nc(SCc3cc(OC)c(OC)c(OC)c3)n(Cc3ccccc3)c(=O)c2cc1OC | > 22.2 | 10.8 µM | > 100 | > 100 | > 100 | > 100 µM | > 100 | > 100 | 47.4 | 2.04 | 0.533 | 1.02 µM | 0.875 | 2.76 µM | 0.742 | 5.25 µM | 16.3 µM | 5.5 µM | 5.28 µM | 0.375 µM
11 | CCNc1cc(-c2cccc(OC(F)(F)F)c2)nc2ccc(N3CCCC3)cc12 | 5 | 3.17 µM | 4.3 | 10.3 | 6.54 | 3.46 µM | 7.63 | 10.7 | 3.79 | 3.05 | 1.57 | 1.18 µM | 1.43 | 2.18 µM | 1.84 | 1.66 µM | 2.36 µM | 2.35 µM | 1.79 µM | 1.56 µM
12 | CS(=O)(=O)CCNCc1cc(-c2cc3c(Nc4ccc(OCc5cccc(F)c5)c(Cl)c4)ncnc3s2)cs1 | > 25 | 11.8 µM | 17.8 | 13.1 | > 25 | > 25 µM | > 25 | > 25 | > 25 | > 25 | 7.39 | 2.27 µM | 6.25 | 5.41 µM | 10.8 | 12.9 µM | 13.5 µM | 14.4 µM | 11.3 µM | 11 µM
13 | Nc1nonc1-c1nc2cnccc2n1C1CC1 | 15 | 6.92 µM | > 25 | > 25 | > 17.3 | > 25 µM | > 25 | > 25 | > 25 | > 25 | 3.81 | 1.2 µM | > 21 | 5.87 µM | 6.05 | 18.1 µM | 5.14 µM | 7.4 µM | 4.98 µM | 11.2 µM
14 | Cn1c(C(=O)c2ccncc2)cc2ccccc21 | > 100 | > 100 µM | > 100 | > 100 | > 100 | > 100 µM | > 100 | > 100 | > 100 | > 100 | 63.1 | 35.1 µM | 59.3 | 92.8 µM | > 100 | > 100 µM | > 100 µM | > 100 µM | 96.7 µM | > 100 µM
15 | FC(F)(c1ccc2ncccc2c1)c1nnc2ccc(-c3ccncc3)nn12 | > 100 | 83.8 µM | > 100 | > 100 | > 100 | > 100 µM | > 100 | > 100 | > 100 | > 100 | > 100 | 16.4 µM | 52.7 | > 100 µM | 95.3 | > 100 µM | > 100 µM | > 100 µM | 66.5 µM | > 100 µM
16 | O=C(/C=C/C12c3ccccc3C(c3ccccc31)C1C(=O)NC(=O)C12)c1ccc(Cl)cc1Cl (stereo not drawn) | 4.68 | 3.22 µM | 10.9 | 4.41 | 3.79 | 3.46 µM | 3.3 | 3.82 | 3.44 | 4.06 | 1.59 | 1.73 µM | 2.57 | 2.02 µM | 1.72 | 1.76 µM | 1.72 µM | 1.86 µM | 1.79 µM | 1.98 µM
17 | COc1cc(F)c(F)c(Nc2ccc(I)cc2F)c1NS(=O)(=O)C1(C[C@H](O)CO)CC1 | > 10 | > 9.5 µM | > 10 | > 10 | > 10 | 0.2 µM | > 10 | > 10 | > 10 | > 10 | 6.56 | 1.05 µM | 1.34 | 0.0308 µM | > 5.31 | 0.0239 µM | 0.0597 µM | 3.44 µM | 5.72 µM | 0.0659 µM
18 | O=C1c2ccccc2-[n+]2ccc3c([nH]c4ccccc43)c21 | 0.846 | 1.26 µM | 3.31 | 1.78 | 0.834 | 1.88 µM | 1.48 | 2.02 | 1.3 | 0.329 | – | – | – | – | – | – | – | – | – | –
19 | O=C(NOC[C@H](O)CO)c1ccc(F)c(F)c1Nc1ccc(I)cc1F | > 100 | 43.4 µM and > 10 µM | > 100 | > 100 | > 100 | < 0.01 µM and 0.00947 µM | > 100 | > 100 | > 100 | > 100 | > 10 | 0.363 µM and 0.342 µM | – | < 0.01 µM and 0.00291 µM | > 76.5 | < 0.01 µM and 0.00154 µM | < 0.01 µM and 0.0036 µM | 8.76 µM and > 10 µM | 25.6 µM and > 2.28 µM | < 0.01 µM and 0.00416 µM
